Test results from ChEMBL document CHEMBL3351422, “Discovery of N-substituted 7-azaindoline derivatives as potent, orally available M1 and M4 muscarinic acetylcholine receptors selective agonists” (Bioorg Med Chem Lett, 2014).
pEC50: −log10 of the molar value.

Tests used:
[1] = target: Phosphodiesterase 4 (Homo sapiens) (UniProt P27815+Q08499+Q07343+Q08493); assay: Inhibition of human PDE4 at 3 uM by radioligand binding assay; assay type: protein assay
[2] = target: T1, Muscarinic acetylcholine receptor M2 (Homo sapiens) (UniProt P08172); assay: Intrinsic activity at muscarinic M2 receptor (unknown origin) at 10 uM by calcium mobilization assay; assay type: functional
T1 sequence (whole entry): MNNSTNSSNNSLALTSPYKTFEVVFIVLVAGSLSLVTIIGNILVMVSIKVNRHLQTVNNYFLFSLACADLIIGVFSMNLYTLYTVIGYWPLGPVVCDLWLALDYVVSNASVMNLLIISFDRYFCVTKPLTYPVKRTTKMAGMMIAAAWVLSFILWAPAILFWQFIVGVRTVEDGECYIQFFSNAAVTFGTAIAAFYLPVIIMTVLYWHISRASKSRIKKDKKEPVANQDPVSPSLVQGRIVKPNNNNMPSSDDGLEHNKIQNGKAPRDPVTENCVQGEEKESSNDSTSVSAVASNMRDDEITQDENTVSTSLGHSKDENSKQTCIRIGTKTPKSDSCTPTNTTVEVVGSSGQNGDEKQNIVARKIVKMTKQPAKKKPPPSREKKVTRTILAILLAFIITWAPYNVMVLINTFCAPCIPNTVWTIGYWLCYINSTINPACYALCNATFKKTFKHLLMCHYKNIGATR

[3] = target: Somatostatin receptor type 4 (Homo sapiens) (UniProt P31391); assay: Inhibition of human SST4 receptor at 3 uM by radioligand binding assay
Sequence of Somatostatin receptor type 4 (Homo sapiens) (P31391 whole entry): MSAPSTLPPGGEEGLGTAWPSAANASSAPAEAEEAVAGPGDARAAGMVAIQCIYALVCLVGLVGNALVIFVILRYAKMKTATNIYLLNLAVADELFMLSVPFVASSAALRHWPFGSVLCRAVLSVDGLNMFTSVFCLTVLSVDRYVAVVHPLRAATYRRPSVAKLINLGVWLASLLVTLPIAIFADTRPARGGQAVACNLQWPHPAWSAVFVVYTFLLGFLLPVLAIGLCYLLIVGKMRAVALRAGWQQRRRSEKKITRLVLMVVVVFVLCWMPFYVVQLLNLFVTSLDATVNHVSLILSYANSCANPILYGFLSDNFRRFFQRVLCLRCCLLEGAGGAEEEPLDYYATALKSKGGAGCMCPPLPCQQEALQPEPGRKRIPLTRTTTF

[4] = species: Oryctolagus cuniculus; assay: Inhibition of rabbit purinergic P2X receptor at 3 uM by radioligand binding assay
[5] = target: Sodium-dependent serotonin transporter (Homo sapiens) (UniProt P31645); assay: Inhibition of human SERT at 3 uM by radioligand binding assay
Sequence of Sodium-dependent serotonin transporter (Homo sapiens) (P31645 whole entry, looked up): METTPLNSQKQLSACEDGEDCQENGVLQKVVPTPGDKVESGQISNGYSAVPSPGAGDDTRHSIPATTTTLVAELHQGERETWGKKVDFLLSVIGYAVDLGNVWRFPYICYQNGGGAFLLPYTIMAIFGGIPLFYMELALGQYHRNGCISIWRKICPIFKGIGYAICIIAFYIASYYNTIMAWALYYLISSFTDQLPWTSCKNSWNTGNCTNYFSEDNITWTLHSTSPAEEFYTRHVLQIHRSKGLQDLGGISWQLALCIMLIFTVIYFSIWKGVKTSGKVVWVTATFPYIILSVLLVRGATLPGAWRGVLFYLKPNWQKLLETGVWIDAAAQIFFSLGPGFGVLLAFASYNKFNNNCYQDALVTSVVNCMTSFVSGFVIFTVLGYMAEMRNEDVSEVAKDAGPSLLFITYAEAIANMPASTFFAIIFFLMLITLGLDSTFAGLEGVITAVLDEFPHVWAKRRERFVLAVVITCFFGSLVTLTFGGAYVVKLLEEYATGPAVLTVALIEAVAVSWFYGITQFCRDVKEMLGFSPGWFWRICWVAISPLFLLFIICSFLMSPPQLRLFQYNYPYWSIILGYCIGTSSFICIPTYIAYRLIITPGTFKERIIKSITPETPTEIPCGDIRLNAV

[6] = target: Muscarinic acetylcholine receptor M1 (Homo sapiens, UniProt P11229); assay: Agonist activity at muscarinic M1 receptor (unknown origin) by calcium mobilization assay; assay type: functional
Sequence of Muscarinic acetylcholine receptor M1 (P11229 whole entry): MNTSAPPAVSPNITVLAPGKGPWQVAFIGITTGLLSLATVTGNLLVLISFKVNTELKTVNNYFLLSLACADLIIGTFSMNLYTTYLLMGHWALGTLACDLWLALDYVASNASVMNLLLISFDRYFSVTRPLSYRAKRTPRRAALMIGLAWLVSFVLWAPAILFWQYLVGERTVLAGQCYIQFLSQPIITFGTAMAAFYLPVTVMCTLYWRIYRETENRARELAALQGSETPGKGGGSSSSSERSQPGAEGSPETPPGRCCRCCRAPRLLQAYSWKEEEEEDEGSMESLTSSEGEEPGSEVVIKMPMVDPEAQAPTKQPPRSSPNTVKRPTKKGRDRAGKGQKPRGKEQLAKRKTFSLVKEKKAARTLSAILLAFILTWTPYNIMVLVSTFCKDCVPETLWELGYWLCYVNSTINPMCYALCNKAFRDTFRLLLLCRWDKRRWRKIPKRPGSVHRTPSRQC

[7] = target: Adrenergic receptor alpha-1 (Rattus norvegicus) (UniProt P15823+P23944+P43140); assay: Inhibition of rat alpha1 adrenergic receptor at 3 uM by radioligand binding assay
[8] = target: Glutamate NMDA receptor (Rattus norvegicus) (UniProt P35439+Q00959+Q00960+Q00961+Q62645+Q8VHN2+Q9R1M7); assay: Inhibition of rat NMDA receptor phencyclidine binding site at 3 uM by radioligand binding assay; assay type: protein-complex assay
[9] = species: Homo sapiens; assay: Inhibition of human nicotinic acetylcholine receptor at 3 uM by radioligand binding assay
[10] = target: Neuronal acetylcholine receptor subunit alpha-7 (Rattus norvegicus) (UniProt Q05941); assay: Inhibition of rat nAChR alpha7 at 3 uM by methyllycaconitine binding assay
Sequence of Neuronal acetylcholine receptor subunit alpha-7 (Rattus norvegicus) (Q05941 whole entry): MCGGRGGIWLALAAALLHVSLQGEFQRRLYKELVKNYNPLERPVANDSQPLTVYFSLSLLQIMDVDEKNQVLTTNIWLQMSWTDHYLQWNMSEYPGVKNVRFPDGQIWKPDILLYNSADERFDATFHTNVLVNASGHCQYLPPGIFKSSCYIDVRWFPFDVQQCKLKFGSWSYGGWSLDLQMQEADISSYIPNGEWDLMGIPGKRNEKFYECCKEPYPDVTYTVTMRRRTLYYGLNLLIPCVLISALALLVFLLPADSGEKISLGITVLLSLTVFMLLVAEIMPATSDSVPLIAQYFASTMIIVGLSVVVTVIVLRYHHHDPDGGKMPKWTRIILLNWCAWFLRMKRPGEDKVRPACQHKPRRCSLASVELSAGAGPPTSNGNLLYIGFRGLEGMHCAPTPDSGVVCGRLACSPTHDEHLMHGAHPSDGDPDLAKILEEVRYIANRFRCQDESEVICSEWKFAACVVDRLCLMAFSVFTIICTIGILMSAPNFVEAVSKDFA

[11] = Half life in rat at 0.25 mg/kg, iv and 2.5 mg/kg, po; assay type: ADME, organism-based; conditions: in vivo
[12] = species: Rattus norvegicus; assay: Inhibition of rat GABAB type receptor at 3 uM by radioligand binding assay
[13] = target: 5-hydroxytryptamine receptor 1A (Homo sapiens) (UniProt P08908); assay: Inhibition of human 5-HT1A receptor at 3 uM by radioligand binding assay
[14] = target: Beta-2 adrenergic receptor (Homo sapiens) (UniProt P07550); assay: Inhibition of human beta2 adrenergic receptor at 3 uM by radioligand binding assay
Sequence of Beta-2 adrenergic receptor (Homo sapiens) (P07550 whole entry, looked up): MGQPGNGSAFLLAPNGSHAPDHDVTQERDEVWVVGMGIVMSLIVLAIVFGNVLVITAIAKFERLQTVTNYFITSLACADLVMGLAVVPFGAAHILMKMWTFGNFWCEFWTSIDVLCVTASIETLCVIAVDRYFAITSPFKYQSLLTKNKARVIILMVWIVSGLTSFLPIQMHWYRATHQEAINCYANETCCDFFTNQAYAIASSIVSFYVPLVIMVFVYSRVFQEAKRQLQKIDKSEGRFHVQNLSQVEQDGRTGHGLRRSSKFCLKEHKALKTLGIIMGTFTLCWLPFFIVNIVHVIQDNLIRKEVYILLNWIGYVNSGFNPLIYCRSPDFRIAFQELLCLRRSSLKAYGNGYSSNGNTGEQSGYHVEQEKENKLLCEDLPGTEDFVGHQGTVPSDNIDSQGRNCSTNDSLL

[15] = target: Neuronal acetylcholine receptor; alpha4/beta2 (Rattus norvegicus) (UniProt P09483+P12390); assay: Displacement of [3H]cytisine from rat alpha4beta2 nAChR; assay type: protein-complex assay; conditions: concentration not given here
[16] = target: Muscarinic acetylcholine receptor M3 (Homo sapiens) (UniProt P20309); assay: Intrinsic activity at muscarinic M3 receptor (unknown origin) at 10 uM by calcium mobilization assay; assay type: functional
[17] = target: Adenosine receptor A2a (Homo sapiens) (UniProt P29274); assay: Inhibition of human adenosine A2A receptor at 3 uM by radioligand binding assay
Sequence of Adenosine receptor A2a (Homo sapiens) (P29274 whole entry): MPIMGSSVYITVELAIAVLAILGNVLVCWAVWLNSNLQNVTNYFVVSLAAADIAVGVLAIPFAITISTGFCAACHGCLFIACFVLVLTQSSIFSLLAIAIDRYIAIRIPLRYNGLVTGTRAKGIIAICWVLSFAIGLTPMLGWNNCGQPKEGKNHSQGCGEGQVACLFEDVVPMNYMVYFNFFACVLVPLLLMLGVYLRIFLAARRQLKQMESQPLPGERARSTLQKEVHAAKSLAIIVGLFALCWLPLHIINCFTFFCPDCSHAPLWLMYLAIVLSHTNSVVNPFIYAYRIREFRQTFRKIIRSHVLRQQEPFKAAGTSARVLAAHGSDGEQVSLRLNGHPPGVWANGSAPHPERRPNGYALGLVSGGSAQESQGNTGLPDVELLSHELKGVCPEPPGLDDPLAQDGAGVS

[18] = target: D(4) dopamine receptor (Homo sapiens) (UniProt P21917); assay: Inhibition of human dopamine D4.2 receptor at 3 uM by radioligand binding assay
Sequence of D(4) dopamine receptor (Homo sapiens) (P21917 whole entry): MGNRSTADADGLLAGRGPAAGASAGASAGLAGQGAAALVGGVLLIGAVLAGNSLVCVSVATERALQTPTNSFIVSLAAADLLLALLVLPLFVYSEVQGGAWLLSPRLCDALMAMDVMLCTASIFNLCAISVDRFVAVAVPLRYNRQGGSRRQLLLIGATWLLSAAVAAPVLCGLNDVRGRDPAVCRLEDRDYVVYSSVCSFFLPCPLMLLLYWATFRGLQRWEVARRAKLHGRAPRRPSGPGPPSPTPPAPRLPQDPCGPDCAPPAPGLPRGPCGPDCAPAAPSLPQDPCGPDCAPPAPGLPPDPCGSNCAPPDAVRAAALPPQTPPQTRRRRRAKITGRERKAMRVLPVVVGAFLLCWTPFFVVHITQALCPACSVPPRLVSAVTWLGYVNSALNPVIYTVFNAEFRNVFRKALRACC

[19] = Clearance in rat at 0.25 mg/kg, iv and 2.5 mg/kg, po; assay type: ADME, organism-based; conditions: in vivo
[20] = Oral bioavailability in rat at 2.5 mg/kg; assay type: ADME, organism-based; conditions: in vivo
[21] = target: D(2) dopamine receptor (Homo sapiens) (UniProt P14416); assay: Inhibition of human dopamine D2S receptor at 3 uM by radioligand binding assay
Sequence of D(2) dopamine receptor (Homo sapiens) (P14416 whole entry): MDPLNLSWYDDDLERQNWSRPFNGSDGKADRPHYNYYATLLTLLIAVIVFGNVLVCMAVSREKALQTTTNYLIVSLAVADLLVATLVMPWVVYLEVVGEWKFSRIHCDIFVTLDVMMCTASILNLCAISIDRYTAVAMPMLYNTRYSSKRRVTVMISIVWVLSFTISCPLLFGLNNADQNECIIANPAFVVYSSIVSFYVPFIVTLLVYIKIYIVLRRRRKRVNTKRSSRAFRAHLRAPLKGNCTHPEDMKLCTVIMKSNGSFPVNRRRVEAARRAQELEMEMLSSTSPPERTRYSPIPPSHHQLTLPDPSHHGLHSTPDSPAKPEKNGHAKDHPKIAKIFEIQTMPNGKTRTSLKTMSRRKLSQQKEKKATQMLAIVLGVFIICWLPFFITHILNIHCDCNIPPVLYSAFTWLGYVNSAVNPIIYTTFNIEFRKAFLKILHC

[22] = target: T2, Muscarinic acetylcholine receptor M5 (Homo sapiens) (UniProt P08912); assay: Intrinsic activity at muscarinic M5 receptor (unknown origin) at 10 uM by calcium mobilization assay; assay type: functional
T2 sequence (whole entry): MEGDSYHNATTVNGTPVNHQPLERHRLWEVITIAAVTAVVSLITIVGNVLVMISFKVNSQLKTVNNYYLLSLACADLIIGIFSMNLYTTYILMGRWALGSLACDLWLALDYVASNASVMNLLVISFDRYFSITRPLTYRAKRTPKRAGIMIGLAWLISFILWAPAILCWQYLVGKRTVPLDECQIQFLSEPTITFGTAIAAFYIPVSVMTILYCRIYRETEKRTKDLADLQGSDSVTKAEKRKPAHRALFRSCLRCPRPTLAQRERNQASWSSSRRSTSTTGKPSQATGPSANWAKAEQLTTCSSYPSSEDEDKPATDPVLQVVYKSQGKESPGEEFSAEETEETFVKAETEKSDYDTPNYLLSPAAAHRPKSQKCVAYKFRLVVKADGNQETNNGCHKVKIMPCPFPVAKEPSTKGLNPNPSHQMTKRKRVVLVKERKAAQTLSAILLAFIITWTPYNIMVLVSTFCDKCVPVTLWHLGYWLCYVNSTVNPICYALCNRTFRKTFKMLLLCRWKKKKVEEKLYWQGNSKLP

[23] = Volume of distribution at steady state in rat at 0.25 mg/kg, iv and 2.5 mg/kg, po; assay type: ADME, organism-based; conditions: in vivo, read-out: Vdss
[24] = target: Sigma non-opioid intracellular receptor 1 (Homo sapiens) (UniProt Q99720); assay: Inhibition of human sigma1 receptor at 3 uM by radioligand binding assay
Sequence of Sigma non-opioid intracellular receptor 1 (Homo sapiens) (Q99720 whole entry): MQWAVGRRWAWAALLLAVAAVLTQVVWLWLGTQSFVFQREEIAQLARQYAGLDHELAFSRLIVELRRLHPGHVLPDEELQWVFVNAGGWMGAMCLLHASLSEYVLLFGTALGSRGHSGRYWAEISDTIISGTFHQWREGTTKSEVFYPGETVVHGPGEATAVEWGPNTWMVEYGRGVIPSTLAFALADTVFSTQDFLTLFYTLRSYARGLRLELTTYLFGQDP

[25] = species: Rattus norvegicus; assay: Displacement of [125I]alpha-bungarotoxin from rat nicotinic acetylcholine receptor at 3 uM by radioligand binding assay
[26] = target: cAMP and cAMP-inhibited cGMP 3',5'-cyclic phosphodiesterase 10A (Homo sapiens) (UniProt Q9Y233); assay: Inhibition of human PDE10A1 at 3 uM by radioligand binding assay
[27] = target: Adenosine receptor A1 (Homo sapiens) (UniProt P30542); assay: Inhibition of human adenosine A1 receptor at 3 uM by radioligand binding assay
[28] = target: Substance-P receptor (Homo sapiens) (UniProt P25103); assay: Inhibition of human NK1 receptor at 3 uM by radioligand binding assay
[29] = target: Adenosine receptor A3 (Homo sapiens) (UniProt P0DMS8); assay: Inhibition of human adenosine A3 receptor at 3 uM by radioligand binding assay
Sequence of Adenosine receptor A3 (Homo sapiens) (P0DMS8 whole entry): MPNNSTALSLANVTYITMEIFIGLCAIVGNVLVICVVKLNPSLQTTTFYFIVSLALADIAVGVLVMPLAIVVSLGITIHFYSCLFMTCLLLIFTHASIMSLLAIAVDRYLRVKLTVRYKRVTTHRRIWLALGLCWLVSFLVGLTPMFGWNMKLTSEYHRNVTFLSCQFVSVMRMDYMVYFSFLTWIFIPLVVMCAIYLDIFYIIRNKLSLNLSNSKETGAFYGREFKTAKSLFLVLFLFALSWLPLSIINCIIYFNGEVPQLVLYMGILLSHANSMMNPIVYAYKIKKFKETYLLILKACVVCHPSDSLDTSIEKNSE

[30] = target: Acetylcholinesterase (Homo sapiens) (UniProt P22303); assay: Inhibition of human acetylcholinesterase at 3 uM by radioligand binding assay
Sequence of Acetylcholinesterase (Homo sapiens) (P22303 whole entry): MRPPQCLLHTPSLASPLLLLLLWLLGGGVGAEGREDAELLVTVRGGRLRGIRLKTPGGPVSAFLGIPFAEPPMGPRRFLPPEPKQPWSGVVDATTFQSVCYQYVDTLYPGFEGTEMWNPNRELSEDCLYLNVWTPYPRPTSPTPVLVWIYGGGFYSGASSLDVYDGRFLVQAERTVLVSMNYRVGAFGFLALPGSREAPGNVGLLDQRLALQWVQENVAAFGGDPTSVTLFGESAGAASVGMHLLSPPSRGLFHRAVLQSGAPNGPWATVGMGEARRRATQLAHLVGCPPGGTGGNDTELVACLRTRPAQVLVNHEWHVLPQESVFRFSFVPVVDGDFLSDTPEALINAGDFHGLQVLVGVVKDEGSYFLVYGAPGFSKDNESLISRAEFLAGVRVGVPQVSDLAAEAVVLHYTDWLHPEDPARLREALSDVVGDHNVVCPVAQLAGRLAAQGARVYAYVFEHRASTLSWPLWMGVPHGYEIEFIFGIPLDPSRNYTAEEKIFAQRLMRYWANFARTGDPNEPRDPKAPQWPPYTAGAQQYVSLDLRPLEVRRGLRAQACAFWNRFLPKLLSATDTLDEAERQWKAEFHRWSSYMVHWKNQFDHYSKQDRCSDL

For `CCOC(=O)N1CCC(CN2CCC3(CC2)CN(C(=O)N(C)C)c2ncccc23)CC1.O=C(O)/C=C/C(=O)O`, the inhibition [1] was -5%, the Intrinsic activity [2] was 5% and the inhibition [3] was -10%. It also gave an inhibition [4] of 3%, an inhibition [5] of 3% and a pEC50 [6] of 6.88. The inhibition [7] was 21%, the inhibition [8] was 0% and the inhibition [9] was 9%. The inhibition [10] was 13%, the half-life [11] was 54 min and the inhibition [12] was 14%. The inhibition [13] was -6%, the inhibition [14] was -1% and the inhibition [15] was 11%. The Intrinsic activity [16] was 2%, the inhibition [17] was 7% and the inhibition [18] was 4%. For the same molecule, the clearance [19] was 28.4 mL/min/kg, the bioavailability [20] was 51.1% and the inhibition [21] was 2%. It also gave an Intrinsic activity [22] of 11%, a Vd [23] of 1.8 L/kg and an inhibition [24] of 57%. The inhibition [25] was 7%, the inhibition [26] was -2% and the inhibition [27] was 15%. It also gave an inhibition [28] of 2%, an inhibition [29] of -8% and an inhibition [30] of 5%.
